Measured values taken from patent US8703768B2, “Nitrogen containing heteroaryl compounds” (Hoffmann-La Roche Inc., priority 2010, dated 2014).

Each compound was assayed against human PDE10A (Homo sapiens (Human), UniProt Q9Y233) (assay: human PDE10A full length Scintillation Proximity Assay (SPA)). Details: 50 nM cGMP and 50 nM [3H]-cGMP, 20 minutes at room temperature; read-out: PDE10A inhibition IC50.
Assay type: biochemical
Procedure, shortened: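 Full-length enzyme incubated with compounds; reaction started with cGMP plus [^3H]-cGMP substrate and run 20 min at room temperature. Stopped with yttrium silicate SPA beads in 18 mM zinc sulphate, 1 h shaking, then scintillation counting; background from enzyme-free wells.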

Chain of human PDE10A (Q9Y233 other isoform, or with tags, fused parts or gaps): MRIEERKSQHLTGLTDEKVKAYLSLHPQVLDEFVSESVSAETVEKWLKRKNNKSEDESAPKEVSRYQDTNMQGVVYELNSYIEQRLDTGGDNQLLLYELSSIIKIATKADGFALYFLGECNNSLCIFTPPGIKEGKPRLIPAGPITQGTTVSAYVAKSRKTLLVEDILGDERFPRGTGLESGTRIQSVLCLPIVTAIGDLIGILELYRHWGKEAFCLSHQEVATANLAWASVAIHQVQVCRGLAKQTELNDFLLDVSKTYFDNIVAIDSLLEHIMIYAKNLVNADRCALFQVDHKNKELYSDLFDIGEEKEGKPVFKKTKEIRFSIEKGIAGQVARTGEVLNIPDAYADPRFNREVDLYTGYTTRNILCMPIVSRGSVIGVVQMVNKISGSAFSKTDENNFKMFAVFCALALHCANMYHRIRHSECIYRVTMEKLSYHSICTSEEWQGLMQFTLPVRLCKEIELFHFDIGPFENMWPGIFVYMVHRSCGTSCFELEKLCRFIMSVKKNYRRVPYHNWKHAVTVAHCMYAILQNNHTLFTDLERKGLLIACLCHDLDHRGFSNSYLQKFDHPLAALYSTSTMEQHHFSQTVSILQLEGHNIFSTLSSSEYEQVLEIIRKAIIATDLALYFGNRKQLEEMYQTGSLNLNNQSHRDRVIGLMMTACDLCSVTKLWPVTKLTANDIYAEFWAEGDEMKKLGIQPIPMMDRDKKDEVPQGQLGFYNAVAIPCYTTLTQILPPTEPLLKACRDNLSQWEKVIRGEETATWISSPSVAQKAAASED

Q: CNC(=O)c1nc(C)ccc1NC(=O)c1nc(C2CC2)cnc1Nc1cncnc1 [Example 182, 6-Cyclopropyl-3-(pyrimidin-5-ylamino)-pyrazine-2-carboxylic acid (6-methyl-2-methylcarbamoyl-pyridin-3-yl)-amide] was tested. Which IC50 did it give?
A: 3.5 nM

Q: For COCCn1ncc(NC(=O)c2nc(C3CC3)ccc2Nc2cncnc2)c1C(=O)N(C)C [Example 6, 6-Cyclopropyl-3-(pyrimidin-5-ylamino)-pyridine-2-carboxylic acid [5-dimethylcarbamoyl-1-(2-methoxy-ethyl)-1H-pyrazol-4-yl]-amide], which IC50 is on record?
A: 12.6 nM

Q: CCc1ccc(NC(=O)c2nc(C3CC3)cnc2Nc2cncnc2)c(C(=O)NC)n1 [Example 180, 6-Cyclopropyl-3-(pyrimidin-5-ylamino)-pyrazine-2-carboxylic acid (6-ethyl-2-methylcarbamoyl-pyridin-3-yl)-amide] was tested. Which IC50 did it give?
A: 5.5 nM

Q: CCn1ncc(NC(=O)c2nc(C3CC3)cnc2Nc2cncnc2)c1C(=O)NCC1CCCO1 (stereo not drawn) [Example 233, 6-Cyclopropyl-3-(pyrimidin-5-ylamino)-pyrazine-2-carboxylic acid {1-ethyl-5-[(tetrahydro-furan-2-ylmethyl)-carbamoyl]-1H-pyrazol-4-yl}-amide] was tested. Which IC50 did it give?
A: 24.9 nM

Q: Which IC50 does the source give for CN(C)C(=O)c1nn(CC(F)(F)F)cc1NC(=O)c1nc(C2CC2)ccc1Nc1cncnc1 [Example 7, 6-Cyclopropyl-3-(pyrimidin-5-ylamino)-pyridine-2-carboxylic acid [3-dimethylcarbamoyl-1-(2,2,2-trifluoro-ethyl)-1H-pyrazol-4-yl]-amide] here?
A: 336 nM

Q: CNC(=O)c1cc(OCCO)ccc1NC(=O)c1nc(C2CC2)cnc1Nc1cncnc1 [Example 216, 6-Cyclopropyl-3-(pyrimidin-5-ylamino)-pyrazine-2-carboxylic acid [4-(2-hydroxy-ethoxy)-2-methylcarbamoyl-phenyl]-amide] was tested. Which IC50 did it give?
A: 0.8 nM

Q: For CNC(=O)c1ccc(F)cc1NC(=O)c1nc(C2CC2)cnc1Nc1cncnc1 [Example 292, 6-Cyclopropyl-3-(pyrimidin-5-ylamino)-pyrazine-2-carboxylic acid (5-fluoro-2-methylcarbamoyl-phenyl)-amide], which IC50 is on record?
A: 0.7 nM

Q: For CC(C)(O)CNC(=O)c1ccc(F)cc1NC(=O)c1nc(C2CC2)cnc1Nc1cncnc1 [Example 301, 6-Cyclopropyl-3-(pyrimidin-5-ylamino)-pyrazine-2-carboxylic acid [5-fluoro-2-(2-hydroxy-2-methyl-propylcarbamoyl)-phenyl]-amide], which IC50 is on record?
A: 0.4 nM

Q: For Cn1ncc(NC(=O)c2nc(C3CC3)c(C3CCCO3)nc2Nc2cncnc2)c1C(=O)NCCF (stereo not drawn) [Example 162, 6-Cyclopropyl-3-(pyrimidin-5-ylamino)-5-(tetrahydro-furan-2-yl)-pyrazine-2-carboxylic acid [5-(2-fluoro-ethylcarbamoyl)-1-methyl-1H-pyrazol-4-yl]-amide], which IC50 is on record?
A: 124 nM

Q: How did the IC50 turn out when CNC(=O)c1cc(OCC(C)(C)O)ccc1NC(=O)c1nc(C2CC2)cnc1Nc1cncnc1 [Example 338, 6-Cyclopropyl-3-(pyrimidin-5-ylamino)-pyrazine-2-carboxylic acid [4-(2-hydroxy-2-methyl-propoxy)-2-methylcarbamoyl-phenyl]-amide] was run?
A: 2.1 nM

Q: CN1CCC(NC(=O)c2c(NC(=O)c3nc(C4CC4)cnc3Nc3cncnc3)cnn2C)CC1 [Example 242, 6-Cyclopropyl-3-(pyrimidin-5-ylamino)-pyrazine-2-carboxylic acid [1-methyl-5-(1-methyl-piperidin-4-ylcarbamoyl)-1H-pyrazol-4-yl]-amide] was tested. Which IC50 did it give?
A: 69.3 nM

Q: Which IC50 does the source give for CCn1ncc(NC(=O)c2nc(C3CC3)cnc2Nc2cncnc2)c1C(=O)N1CCOCC1 [Example 170, 6-Cyclopropyl-3-(pyrimidin-5-ylamino)-pyrazine-2-carboxylic acid [1-ethyl-5-(morpholine-4-carbonyl)-1H-pyrazol-4-yl]-amide] here?
A: 88.9 nM
